Measurements from patent US7381723B2, “Azabicyclylmethyl derivatives of 7,8-dihydro-1,6,9,-trioxa-3-aza-cyclopenta[a]naphthalene as 5-HT1A antagonists” (Wyeth, priority 2001, dated 2008).

How the values were obtained:
human 5-HT1A receptors = target: T1, human 5-HT1A receptors (Homo sapiens, UniProt P08908); assay: [3H] 8-OH-DPAT displacement from 5-HT1A receptor (CHO cells); assay type: binding; details: displacement of [3H] 8-OH-DPAT, CHO cells stably transfected with human 5-HT1A; read-out: 5-HT1A Receptor Affinity KI
T1 construct: expressed in transfected cells; host or cells: CHO cells
T1 sequence (P08908 1-422): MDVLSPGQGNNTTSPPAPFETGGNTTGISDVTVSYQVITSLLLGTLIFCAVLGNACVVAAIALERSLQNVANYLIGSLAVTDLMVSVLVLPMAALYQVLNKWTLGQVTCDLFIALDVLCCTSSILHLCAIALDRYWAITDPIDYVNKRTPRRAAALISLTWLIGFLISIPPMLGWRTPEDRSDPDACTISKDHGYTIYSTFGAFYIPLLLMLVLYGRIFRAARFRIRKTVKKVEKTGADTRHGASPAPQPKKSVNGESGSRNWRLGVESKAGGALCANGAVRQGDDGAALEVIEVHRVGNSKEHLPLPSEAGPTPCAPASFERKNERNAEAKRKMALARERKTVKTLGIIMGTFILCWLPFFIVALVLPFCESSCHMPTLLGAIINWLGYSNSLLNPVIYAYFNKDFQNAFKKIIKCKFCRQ
Description: High affinity for the serotonin 5-HT1A receptor was established by testing the claimed compound's ability to displace [^3H] 8-OH-DPAT (dipropylaminotetralin) from the 5-HT1A serotonin receptor following a modification of the procedure of Hall et al., J. Neurochem. 44, 1685 (1985) which utilizes CHO cells stably transfected with human 5-HT1A receptors.

[1] = target: T2, cloned human 5-HT1A receptors (Homo sapiens, UniProt P08908); assay: 35S-GTPγS binding assay, antagonist activity versus 8-OH-DPAT; assay type: biochemical; details: reversal of 8-OH-DPAT effect on 35S-GTPγS binding; for IC50: read-out: 5-HT1A Function IC50
T2 construct: expressed in transfected cells
T2 sequence (P08908 1-422): T1 sequence (P08908 1-422)
Procedure: Antagonist activity at 5-HT1A receptors was established by using a ^35S-GTPγS binding assay similar to that used by Lazareno and Birdsall (Br. J. Pharmacol. 109: 1120, 1993), in which the test compound's ability to affect the binding of ^35S-GTPγS to membranes containing cloned human 5-HT1A receptors was determined. Agonists produce an increase in binding whereas antagonists produce no increase but rather reverse the effects of the standard agonist 8-OH-DPAT. The test compound's maximum inhibitory effect is represented as the Imax, while its potency is defined by the IC50.

SMILES	Ki (human 5-HT1A receptors)	5-HT1A Function Imax (maximum inhibitory effect) [1]	IC50 [1]	melting point
Cc1nc2ccc3c(c2o1)OC(CN1C2CCC1CC(O)(c1ccccc1)C2)CO3 (stereo not drawn) [Example 1, 8-{[2-Methyl-7,8-dihydro[1,4]dioxino[2,3-g][1,3]benzoxazol-8-yl]methyl}-3-phenyl-8-azabicyclo[3.2.1]octan-3-ol]	0.54 nM	76%	53 nM	203 to 205 °C
Cc1nc2ccc3c(c2o1)OC(CN1C2CCC1CC(O)(c1cccc(C(F)(F)F)c1)C2)CO3 (stereo not drawn) [Example 2, 8-{[2-Methyl-7,8-dihydro[1,4]dioxino[2,3-g][1,3]benzoxazol-8-yl]methyl}-3-[3-(trifluoromethyl)phenyl]-8-azabicyclo[3.2.1]octan-3-ol]	0.77 nM	–	–	148 to 150 °C
Cc1nc2ccc3c(c2o1)OC(CN1C2CCC1CC(O)(c1ccc4ccccc4c1)C2)CO3 (stereo not drawn) [Example 3, 8-{[2-Methyl-7,8-dihydro[1,4]dioxino[2,3-g][1,3]benzoxazol-8-yl]methyl}-3-(2-naphthyl)-8-azabicyclo[3.2.1]octan-3-ol]	3.71 nM	95%	27 nM	–
